Experiments:
[1] = target: T1, rat mGlu 1a receptor (Rattus norvegicus, UniProt P23385); test: [Ca2+]i measurement (FLIPR) on mGlu 1a transfected EBNA cells; type: cell-based; conditions: for agonist/antagonist: mode of action at group I mGlu receptor, [Ca2+]i FLIPR assay
T1 construct: expressed in transfected cells; host or cells: EBNA cells (transient transfection)

[2] = compounds acting as antagonists, tested against 10 μM glutamate as agonist

T1 sequence (P23385 19-1199): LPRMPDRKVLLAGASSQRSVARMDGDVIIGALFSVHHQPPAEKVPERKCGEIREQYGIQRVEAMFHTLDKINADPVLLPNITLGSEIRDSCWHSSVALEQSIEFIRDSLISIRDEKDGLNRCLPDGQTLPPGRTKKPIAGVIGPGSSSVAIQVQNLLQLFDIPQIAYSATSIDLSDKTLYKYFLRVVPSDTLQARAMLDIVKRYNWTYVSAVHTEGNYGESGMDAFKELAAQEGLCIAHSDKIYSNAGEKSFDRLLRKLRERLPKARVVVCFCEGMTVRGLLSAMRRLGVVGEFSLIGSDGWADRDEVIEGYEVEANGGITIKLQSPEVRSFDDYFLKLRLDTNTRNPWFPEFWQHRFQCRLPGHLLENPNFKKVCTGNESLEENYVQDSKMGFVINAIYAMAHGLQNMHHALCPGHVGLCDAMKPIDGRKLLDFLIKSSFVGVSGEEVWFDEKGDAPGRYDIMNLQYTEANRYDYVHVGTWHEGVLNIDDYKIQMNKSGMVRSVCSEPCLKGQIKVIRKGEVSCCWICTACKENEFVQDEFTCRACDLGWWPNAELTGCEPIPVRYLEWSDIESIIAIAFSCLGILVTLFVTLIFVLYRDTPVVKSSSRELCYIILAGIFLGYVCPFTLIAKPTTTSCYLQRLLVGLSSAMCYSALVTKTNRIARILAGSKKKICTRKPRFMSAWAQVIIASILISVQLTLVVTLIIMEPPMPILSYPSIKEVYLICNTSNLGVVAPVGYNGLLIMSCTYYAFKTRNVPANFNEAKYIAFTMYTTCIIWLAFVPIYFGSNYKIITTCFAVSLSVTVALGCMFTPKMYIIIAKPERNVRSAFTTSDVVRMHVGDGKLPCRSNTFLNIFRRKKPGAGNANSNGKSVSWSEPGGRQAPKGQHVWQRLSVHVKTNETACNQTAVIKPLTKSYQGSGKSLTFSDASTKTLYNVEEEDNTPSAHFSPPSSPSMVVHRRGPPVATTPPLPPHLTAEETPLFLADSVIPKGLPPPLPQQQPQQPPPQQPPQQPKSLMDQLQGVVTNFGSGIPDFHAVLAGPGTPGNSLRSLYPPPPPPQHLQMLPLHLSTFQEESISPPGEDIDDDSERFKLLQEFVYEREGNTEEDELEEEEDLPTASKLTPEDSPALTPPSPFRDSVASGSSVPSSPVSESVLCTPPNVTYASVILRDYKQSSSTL

`C=CCOC(=O)NC(=O)C(C)(c1ccccc1)c1ccccc1` [Example 24, (2,2-Diphenyl-propionyl)-carbamic acid allyl ester] showed an IC50 [1, 2] of 2790 nM and a melting point of 89 °C.

`CCCCOC(=O)NC(=O)C(c1ccccc1)c1ccccc1` gave a melting point of 82 to 84 °C.

For `CCCCOC(=O)NC(=O)C1c2ccccc2Sc2ccccc21` [Example 32, (9H-Thioxanthene-9-carbonyl)-carbamic acid butyl ester], the agonist/antagonist [1] was “agonist” and the melting point was 151 to 154 °C.

For “(2,2-Diphenyl-propionyl)-carbamic acid methyl ester [Example 23]”, the IC50 [1, 2] was 6310 nM and the agonist/antagonist [1] was “antagonist”.

`CC(C)(C)OC(=O)NC(=O)C(c1ccccc1)c1ccccc1` showed a melting point of 160 to 162 °C.

In the case of `O=C(Nc1ncco1)C1c2ccccc2Sc2ccccc21` [Example 31, 9H-Thioxanthene-9-carboxylic acid oxazol-2-ylamide], the melting point is reported as 188 to 191 °C.

`CCCCC(=O)NC(=O)C(c1ccccc1)c1ccccc1` [Example 43, Pentanoic acid diphenylacetyl-amide] gave a melting point of 83 °C.

Work on `O=C(NC(=O)C(c1ccccc1)c1ccccc1)OCC1CC1` [Example 10, Diphenylacetyl-carbamic acid cyclopropylmethyl ester] yielded a melting point of 108 °C.

Work on `CCOC(=O)NC(=O)C1c2ccccc2Oc2ccc(Br)cc21` (racemic) yielded a melting point of 203 °C.

In the case of `O=C(NC(=O)C(c1ccccc1)c1ccccc1)OCCN1CCOCC1`, the melting point is reported as 135 to 137 °C.

For `CCOC(=O)NC(=O)C1c2ccccc2Sc2ccccc21`, the melting point was 179 to 182 °C.

Work on `CCOC(=O)NC(=O)C(c1cccc(C)c1)c1ncc(C(F)(F)F)cc1Cl` (centres unmarked) yielded a melting point of 146 to 147 °C.

`CCCC(=O)NC(=O)C(c1ccccc1)c1ccccc1` gave a melting point of 205 °C.

`CCc1cnc(NC(=O)C(c2ccccc2)c2ccccc2)o1` [Example 63, N-(5-Ethyl-oxazol-2-yl)-2,2-diphenyl-acetamide] showed a melting point of 148 to 149 °C.

With `C=CCOC(=O)NC(=O)C(c1ccccc1)c1ccccc1` [Example 3, Diphenylacetyl-carbamic acid allyl ester] the melting point was 118 to 120 °C.

In the case of `CCCCOC(=O)NC(=O)C(C)(c1ccccc1)c1ccccc1` [Example 25, (2,2-Diphenyl-propionyl)-carbamic acid butyl ester], the IC50 [1, 2] is reported as 1380 nM and the melting point is reported as 83 °C.

Compound `CCOC(=O)NC(=O)C1c2ccccc2Oc2c1cccc2C(F)(F)F` (centres unmarked) has a melting point of 196 to 198 °C.

`O=C(NC(=O)C(c1ccccc1)c1ccccc1)C1CC1` gave a melting point of 178 °C.

With `CCCC(=O)NC(=O)C1c2ccccc2Oc2ccccc21` the melting point was 222 °C.

Work on `CCCCSC(=O)NC(=O)C(c1ccccc1)c1ccccc1` yielded a melting point of 99 °C.

Work on `O=C(Nc1nnc(CC2CC2)o1)C(c1ccccc1)c1ccccc1` [Example 59, N-(5-Cyclopropylmethyl-[1,3,4]oxadiazol-2-yl)-2,2-diphenyl-acetamide] yielded a melting point of 158 to 159 °C.

Work on `CC(C)OC(=O)NC(=O)C(c1ccccc1)c1ccccc1` [Example 4, Diphenylacetyl-carbamic acid isopropyl ester] yielded a melting point of 122 to 124 °C.

With `CCOC(=O)NC(=O)C1c2ccccc2Oc2ccccc21` the melting point was 228 °C (dec.).

For `O=C(Nc1nnc(C2CC2)o1)C(c1ccccc1)c1ccccc1` [Example 57, N-(5-Cyclopropyl-[1,3,4]oxadiazol-2-yl)-2,2-diphenyl-acetamide], the melting point was 159 to 160 °C.

For `Cc1cnc(NC(=O)C(c2ccccc2)c2ccccc2)o1` [Example 65, N-(5-Methyl-oxazol-2-yl)-2,2-diphenyl-acetamide], the IC50 ([1]; compounds acting as agonists, activation curve) was 400 nM, the agonist/antagonist [1] was “agonist” and the melting point was 166 to 168 °C.

`COCCc1nnc(NC(=O)C(c2ccccc2)c2ccccc2)o1` [Example 55, N-[5-(2-Methoxy-ethyl)-[1,3,4]oxadiazol-2-yl]-2,2-diphenyl-acetamide] gave a melting point of 114 to 115 °C.
